Experimental data from the supplement of paper PMC5908809.

Tests used:
Assay in all cases: relative IC50 (inflection point of fitted viability curve, relative to fitted max inhibition); higher = less sensitive
Details in all cases: 72 h
[1] = system: normal primary NK cells, pool 1 (3 donors), resting (IL-2 0 ng/mL)
Protocol: (§1)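 Drug sensitivity and resistance testing: 5 concentrations over a 10,000-fold range, 72 h at 37 °C, viability by CellTiter-Glo normalised to DMSO and benzethonium chloride controls. IC50 is the inflection point of a logistic fit (min fixed at 0, max fitted), so it is relative to the fitted maximal inhibition. Kept only where fitted max inhibition is at least 50%.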

[2] = system: normal primary NK cells, pool 1 (3 donors) (IL-2 2.5 ng/mL)
Protocol: as §1

KHYG-1 (IL-2 2.5 ng/mL) = system: KHYG-1 (IL-2 2.5 ng/mL)
Protocol: as §1

NKL (IL-2 2.5 ng/mL) = system: NKL (IL-2 2.5 ng/mL)
Protocol: as §1

[3] = system: normal primary NK cells, pool 3 (3 donors) (IL-2 2.5 ng/mL)
Protocol: as §1

YT (IL-2 2.5 ng/mL) = system: YT (IL-2 2.5 ng/mL)
Protocol: as §1

[4] = system: normal primary NK cells, pool 2 (3 donors) (IL-2 2.5 ng/mL)
Protocol: as §1

IMC-1 (IL-2 20 ng/mL) = system: IMC-1 (IL-2 20 ng/mL)
Protocol: as §1

NK-92 (IL-2 2.5 ng/mL) = system: NK-92 (IL-2 2.5 ng/mL)
Protocol: as §1

KAI3 (IL-2 2.5 ng/mL) = system: KAI3 (IL-2 2.5 ng/mL)
Protocol: as §1

DERL-7 (IL-2 2.5 ng/mL) = system: DERL-7 (IL-2 2.5 ng/mL)
Protocol: as §1

NK-YS (IL-2 2.5 ng/mL) = system: NK-YS (IL-2 2.5 ng/mL)
Protocol: as §1

SNK-6 (IL-2 2.5 ng/mL) = system: SNK-6 (IL-2 2.5 ng/mL)
Protocol: as §1

| SMILES | relative IC50 [1] [nM] | relative IC50 [2] [nM] | relative IC50 (KHYG-1 (IL-2 2.5 ng/mL)) [nM] | relative IC50 (NKL (IL-2 2.5 ng/mL)) [nM] | relative IC50 [3] [nM] | relative IC50 (YT (IL-2 2.5 ng/mL)) [nM] | relative IC50 [4] [nM] | relative IC50 (IMC-1 (IL-2 20 ng/mL)) [nM] | relative IC50 (NK-92 (IL-2 2.5 ng/mL)) [nM] | relative IC50 (KAI3 (IL-2 2.5 ng/mL)) [nM] | relative IC50 (DERL-7 (IL-2 2.5 ng/mL)) [nM] | relative IC50 (NK-YS (IL-2 2.5 ng/mL)) [nM] | relative IC50 (SNK-6 (IL-2 2.5 ng/mL)) [nM] |
| --- | --- | --- | --- | --- | --- | --- | --- | --- | --- | --- | --- | --- | --- |
| CC(C)[C@H]1C(=O)N[C@@H](CCCNC(=N)N)C(=O)NCC(=O)N[C@@H](CC(=O)O)C(=O)N[C@H](Cc2ccccc2)C(=O)N1C [Cilengitide] | > 10000 | > 10000 | > 10000 | > 10000 | > 10000 | > 10000 | > 10000 | > 10000 | > 10000 | – | – | – | – |
| Cc1ccccc1C(C(=O)NC1CCCCC1)N(C(=O)Cn1ccnc1C)c1cccc(F)c1 (centres undefined) [AGI-5198] | – | > 10000 | – | – | – | – | – | – | – | – | – | – | – |
| O=C(Nc1ccc(-c2ccnc(Nc3ccc(N4CCOCC4)cc3)n2)cc1)C1CCCN1 (centres undefined) [XL019] | 1380 | 2220 | 2490 | 658 | 1870 | – | 1510 | 3200 | – | 1660 | 1370 | – | – |
| Nc1nc(F)nc2c1ncn2[C@@H]1O[C@H](CO)[C@@H](O)[C@@H]1O [Fludarabine] | 491 | 996 | 2630 | 895 | 1360 | – | 957 | 3130 | 1560 | 2250 | 3720 | – | – |
| Nc1ccccc1NC(=O)c1ccc(CNC(=O)OCc2cccnc2)cc1 [Entinostat] | 582 | 1330 | 954 | 494 | 2910 | 2460 | 1530 | 2330 | 479 | 399 | 1570 | 1680 | 456 |
| CC[C@H](NC(=O)[C@H](C)NC)C(=O)N1C[C@@H](O)C[C@H]1Cc1c(-c2[nH]c3cc(F)ccc3c2C[C@@H]2C[C@H](O)CN2C(=O)[C@H](CC)NC(=O)[C@H](C)NC)[nH]c2cc(F)ccc12 [Birinapant] | 338 | 311 | – | – | – | – | 278 | – | – | – | – | > 1000 | > 1000 |
| NC(=O)N1CCC(CC(=O)N2CCC([C@H]3c4ncc(Br)cc4CCc4cc(Cl)cc(Br)c43)CC2)CC1 [Lonafarnib] | 693 | 1660 | 492 | – | 1860 | 1060 | 1580 | – | 718 | – | 708 | 450 | – |
| CC(C)C[C@H](NC(=O)[C@H](Cc1ccccc1)NC(=O)c1cnccn1)B(O)O [Bortezomib] | 4.7 | 3.62 | 2.94 | 3.28 | 3.62 | 2.97 | 3.28 | 3.34 | 3.32 | 3.07 | 1.69 | 3.04 | 2.15 |
| Cc1sc2c(c1C)C(c1ccc(Cl)cc1)=N[C@@H](CC(=O)OC(C)(C)C)c1nnc(C)n1-2 [(+)JQ1] | 1080 | 546 | 165 | 113 | – | 238 | – | – | – | 362 | 76.9 | 231 | 215 |
| COc1cccc2c1C(=O)c1c(O)c3c(c(O)c1C2=O)C[C@@](O)(C(=O)CO)C[C@@H]3O[C@H]1C[C@H](N)[C@H](O)[C@H](C)O1 [Doxorubicin] | 59.9 | 118 | 56.7 | 4.41 | 159 | 69.6 | 119 | 45.3 | 76.2 | 27.2 | 32.3 | 29.4 | 41.2 |
| O=C(Nc1cccnc1)N1CCC(Cc2cccc(Oc3ccc(C(F)(F)F)cn3)c2)CC1 [PF-3845] | 3480 | 2860 | 2560 | 1560 | – | – | – | – | – | – | – | 2040 | – |
| CN(C)CCOc1ccc(/C(=C(/CCCl)c2ccccc2)c2ccccc2)cc1 [Toremifene] | 2370 | 3740 | – | – | – | – | – | – | 2190 | 2030 | 1090 | – | – |
| COCC[n+]1c2c(n(Cc3cnccn3)c1C)C(=O)c1ccccc1C2=O [YM155] | 209 | 691 | 17.1 | 3.09 | 1330 | 7.77 | 780 | < 1 | 17.8 | 10 | 9.75 | 15.5 | 32.5 |
| C[C@@H]1CCN(C(=O)CC#N)C[C@@H]1N(C)c1ncnc2[nH]ccc12 [Tofacitinib] | – | 75 | 41 | 33.1 | 204 | 336 | 95.5 | 616 | 141 | 42.3 | 99.5 | 101 | 78 |
| COc1c(C)cnc(Cn2cnc3c(Cl)nc(N)nc32)c1C [BIIB021] | 226 | 181 | 61.8 | 95.7 | 254 | 98.2 | 104 | 150 | 97.5 | 54.3 | 68.4 | 79.6 | 33.9 |
| N#CC[C@H](C1CCCC1)n1cc(-c2ncnc3[nH]ccc23)cn1 [Ruxolitinib] | – | 69 | 21.9 | 15.8 | 80.4 | 142 | 43.7 | 780 | 55.7 | 17.1 | 45.4 | 85.1 | 31.1 |
| CN1CCC(CNc2ccc3ncc(-c4cccc(OC(F)(F)F)c4)n3n2)CC1 [SGI-1776] | 1580 | 2200 | 2210 | 1780 | 2520 | 2540 | 1590 | 3130 | 2480 | 2000 | 1120 | 2450 | 3220 |
| Cc1ccc(NC(=O)c2ccc(CN3CCN(C)CC3)cc2)cc1Nc1nc(-c2cccnc2)cs1 [Masitinib] | 3340 | 3230 | 2690 | 3390 | 3230 | 2490 | 3500 | 3320 | 3690 | 2970 | 2000 | 2010 | 4530 |
| COc1ccc(CCc2nc3cc(-c4c(C)noc4C)ccc3n2C[C@H](C)N2CCOCC2)cc1Cl [SGC-CBP30] | 4340 | 3540 | 4750 | 1570 | 5310 | 5050 | 3830 | – | 10200 | 10100 | 1490 | 3300 | – |
| CC(C)c1cc(-c2n[nH]c(=O)n2-c2ccc3c(ccn3C)c2)c(O)cc1O [Ganetespib] | 6.18 | 5.67 | 27.4 | 10.4 | 9 | 35.8 | 5.41 | 32.3 | 16.8 | 11.8 | 5.92 | 13.1 | 28.3 |
| CCc1cncnc1N1CCN(Cc2nc3ccc(C(F)(F)F)cc3[nH]2)CC1 | 1820 | 1790 | – | 1840 | – | – | – | 2140 | 1460 | – | – | – | – |
| CCCCC(=O)OCC(=O)[C@]1(O)Cc2c(O)c3c(c(O)c2[C@@H](O[C@H]2C[C@H](NC(=O)C(F)(F)F)[C@H](O)[C@H](C)O2)C1)C(=O)c1c(OC)cccc1C3=O [Valrubicin] | 179 | 256 | 164 | 6.61 | 381 | 235 | 245 | 96 | 160 | 80.7 | 63.4 | 75.1 | 88.1 |
